Experimental data reported in patent US10392404B2, “Compounds and compositions as kinase inhibitors” (NOVARTIS AG, priority 2014, dated 2019).

Experiments:
[1] = biological target: T1, C-RAF (Homo sapiens, UniProt P04049, Y340E/Y341E); assay: In vitro Raf activity determination (Alpha Screen, biotinylated kinase-dead MEK1 substrate), C-Raf; type: biochemical; conditions: c-Raf approximately 4 nM; ATP 1 μM; pre-incubation 60 minutes; reaction 1 hour at room temperature
T1 construct: His tag (implied by nickel chromatography) (cleaved yes); StrepII tag (cleaved yes); made in house; host or cells: Sf9 insect cells (baculovirus), CRAF and h14-3-3 zeta co-expressed; MEK1 substrate from E. coli
Procedure, shortened: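 AlphaScreen read-out of MEK phosphorylation using an anti-phospho-MEK1/2 antibody after a 1 hour room-temperature reaction at 1 μM ATP. Enzyme: approximately 4 nM Sf9-expressed full-length activated C-Raf (Y340E/Y341E, with 14-3-3ζ) on approximately 10 nM biotinylated K97R MEK1, after 60 min compound preincubation. IC50 by non-linear fit.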

[2] = biological target: T2, b-Raf (V600E) (Homo sapiens, UniProt P15056, V600E); assay: In vitro Raf activity determination (Alpha Screen, biotinylated kinase-dead MEK1 substrate), B-Raf; type: biochemical; conditions: b-Raf (V600E) approximately 4 pM; ATP 10 μM; pre-incubation 60 minutes; reaction 3 hours at room temperature
T2 construct: made in house
Procedure, shortened: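 IC50 from non-linear regression of AlphaScreen phospho-MEK signal (anti-p-MEK1/2 antibody). b-Raf(V600E), about 4 pM, phosphorylated ~10 nM biotinylated K97R MEK1 with 10 μM ATP for 3 h at room temperature after 60 min compound pre-incubation; buffer pH 7.5 Tris, 15 mM MgCl2, 1 mM DTT.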

T2 sequence (P15056 whole entry V600E): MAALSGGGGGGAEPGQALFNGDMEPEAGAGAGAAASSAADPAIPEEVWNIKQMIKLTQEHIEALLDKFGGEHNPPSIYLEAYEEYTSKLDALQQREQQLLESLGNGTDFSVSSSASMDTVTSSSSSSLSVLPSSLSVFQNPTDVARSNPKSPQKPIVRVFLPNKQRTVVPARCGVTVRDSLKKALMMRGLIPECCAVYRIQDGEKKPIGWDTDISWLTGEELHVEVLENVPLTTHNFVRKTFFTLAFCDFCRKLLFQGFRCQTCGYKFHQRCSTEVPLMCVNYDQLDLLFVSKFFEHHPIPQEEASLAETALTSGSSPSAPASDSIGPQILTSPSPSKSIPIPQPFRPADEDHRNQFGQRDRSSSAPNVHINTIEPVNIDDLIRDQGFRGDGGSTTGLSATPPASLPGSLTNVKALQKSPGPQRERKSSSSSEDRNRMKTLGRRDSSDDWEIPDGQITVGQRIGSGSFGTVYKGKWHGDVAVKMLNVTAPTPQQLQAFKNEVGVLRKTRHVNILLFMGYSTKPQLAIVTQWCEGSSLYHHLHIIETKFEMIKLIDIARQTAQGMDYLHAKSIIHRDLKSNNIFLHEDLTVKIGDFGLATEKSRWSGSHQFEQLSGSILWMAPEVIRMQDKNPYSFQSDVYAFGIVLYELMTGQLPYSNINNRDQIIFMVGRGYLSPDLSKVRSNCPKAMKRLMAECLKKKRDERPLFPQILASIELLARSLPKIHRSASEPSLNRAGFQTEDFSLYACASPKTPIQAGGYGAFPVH
T1 sequence (P04049 whole entry Y340E/Y341E): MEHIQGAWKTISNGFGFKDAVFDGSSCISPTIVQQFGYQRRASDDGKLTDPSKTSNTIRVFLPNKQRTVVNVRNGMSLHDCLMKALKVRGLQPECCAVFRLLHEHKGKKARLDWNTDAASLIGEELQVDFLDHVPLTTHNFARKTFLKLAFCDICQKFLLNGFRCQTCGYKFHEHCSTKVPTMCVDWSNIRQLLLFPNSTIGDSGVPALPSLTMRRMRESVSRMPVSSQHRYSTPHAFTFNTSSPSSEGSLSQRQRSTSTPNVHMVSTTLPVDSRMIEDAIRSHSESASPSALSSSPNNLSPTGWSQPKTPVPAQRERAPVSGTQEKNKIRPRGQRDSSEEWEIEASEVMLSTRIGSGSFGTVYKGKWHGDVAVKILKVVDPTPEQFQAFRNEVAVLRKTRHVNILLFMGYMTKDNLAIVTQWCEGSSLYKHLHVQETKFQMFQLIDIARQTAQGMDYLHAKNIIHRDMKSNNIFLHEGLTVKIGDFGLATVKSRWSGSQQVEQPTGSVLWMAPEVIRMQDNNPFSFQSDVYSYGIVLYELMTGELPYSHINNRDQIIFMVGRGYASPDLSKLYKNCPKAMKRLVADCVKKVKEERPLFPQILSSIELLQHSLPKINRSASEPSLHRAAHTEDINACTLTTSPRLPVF
T1 sequence (P63104 whole entry partner): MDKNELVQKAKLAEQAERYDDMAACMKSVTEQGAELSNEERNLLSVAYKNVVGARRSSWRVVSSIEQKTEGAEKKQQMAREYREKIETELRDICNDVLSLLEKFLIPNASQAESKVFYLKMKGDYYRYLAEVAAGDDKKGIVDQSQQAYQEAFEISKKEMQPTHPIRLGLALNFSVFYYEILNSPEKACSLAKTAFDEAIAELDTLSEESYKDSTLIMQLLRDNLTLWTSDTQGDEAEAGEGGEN

| IC50 [1] | IC50 [2] | SMILES |
| --- | --- | --- |
| 9.21 nM | 74.3 nM | Cc1ncc(NC(=O)c2ccnc(C(C)(C)C#N)c2)cc1-c1cnc(OCCO)c(C#N)c1 [Example 98, N-(5′-cyano-6′-(2-hydroxyethoxy)-2-methyl-[3,3′-bipyridin]-5-yl)-2-(2-cyanopropan-2-yl)isonicotinamide] |
| 0.712 nM | 5.8 nM | Cc1ncc(NC(=O)c2cccc(C(F)(F)F)c2)cc1-c1cnc(OCCO)c(C#N)c1 [Example 99, N-(5′-cyano-6′-(2-hydroxyethoxy)-2-methyl-[3,3′-bipyridin]-5-yl)-3-(trifluoromethyl) benzamide] |
| 0.66 nM | 3.14 nM | Cc1ncc(NC(=O)c2ccnc(C(F)(F)F)c2)cc1-c1cnc(-c2ccn(C)c(=O)c2)c(C#N)c1 [Example 102, N-(5′-cyano-1″,2-dimethyl-2″-oxo-1″,2″-dihydro-[3,3′:6′,4″- terpyridin]-5-yl)-2-(trifluoromethyl) isonicotinamide] |
| 4.21 nM | 22.5 nM | Cc1ncc(NC(=O)c2ccnc(C(C)(C)C#N)c2)cc1-c1cnc(-c2ccn(C)c(=O)c2)c(C#N)c1 [Example 103, N-(5′-cyano-1″,2-dimethyl-2″-oxo-1″,2″-dihydro-[3,3′:6′,4″- terpyridin]-5-yl)-2-(2-cyanopropan-2-yl)isonicotinamide] |
| 0.594 nM | 3.16 nM | Cc1ncc(NC(=O)c2ccnc(C(F)(F)F)c2)cc1-c1cnc(-c2cccnc2)c(C#N)c1 [Example 104, N-(3′-cyano-2″- methyl-[3,2′:5′,3″- terpyridin]-5″-yl)-2-(trifluoromethyl) isonicotinamide] |
| 2.75 nM | 18 nM | Cc1ncc(NC(=O)c2ccnc(C(C)(C)C#N)c2)cc1-c1cnc(-c2ccc(=O)n(C)c2)c(C#N)c1 [Example 105, N-(3′-cyano-1,2″- dimethyl-6-oxo-1,6-dihydro-[3,2′:5′,3″- terpyridin]-5″-yl)-2-(2-cyanopropan-2-yl)isonicotinamide] |
| 0.391 nM | 2.19 nM | Cc1ncc(NC(=O)c2cccc(C(F)(F)F)c2)cc1-c1cnc(-c2ccncc2)c(C#N)c1 [Example 106, N-(5′-cyano-2-methyl-[3,3′:6′,4″- terpyridin]-5-yl)-3-(trifluoromethyl) benzamide] |
| 2.16 nM | 9.07 nM | Cc1ncc(NC(=O)c2ccnc(C(C)(C)C#N)c2)cc1-c1cnc(-c2ccncc2)c(C#N)c1 [Example 107] |
| 2.66 nM | 13.7 nM | Cc1ncc(NC(=O)c2ccnc(C(C)(C)C#N)c2)cc1-c1cnc(-c2cccnc2)c(C#N)c1 [Example 108, N-(3′-cyano-2″- methyl-[3,2′:5′,3″- terpyridin]-5″-yl)-2-(2-cyanopropan-2-yl)isonicotinamide] |
| 2.74 nM | 20 nM | Cc1ncc(NC(=O)c2ccnc(C(C)(C)C#N)c2)cc1-c1cnc(-c2ccn(C)n2)c(C#N)c1 [Example 109, N-(5′-cyano-2-methyl-6′-(1-methyl-1H-pyrazol-3-yl)-[3,3′-bipyridin]-5-yl)-2-(2-cyanopropan-2-yl)isonicotinamide] |
| 0.397 nM | 1.46 nM | Cc1ncc(NC(=O)c2ccnc(C(F)(F)F)c2)cc1-c1cnc(-c2cn(C)nc2C)c(C#N)c1 [Example 111, N-(5′-cyano-6′-(1,3-dimethyl-1H-pyrazol-4-yl)-2-methyl-[3,3′-bipyridin]-5-yl)-2-(trifluoromethyl) isonicotinamide] |
| 3.51 nM | 17.6 nM | Cc1ncc(NC(=O)c2ccnc(C(F)(F)F)c2)cc1-c1cnc(-c2c(C)nn(C)c2C)c(C#N)c1 [Example 112, N-(5′-cyano-2-methyl-6′-(1,3,5-trimethyl-1H-pyrazol-4-yl)-[3,3′-bipyridin]-5-yl)-2-(trifluoromethyl) isonicotinamide] |
| 1.79 nM | 6.26 nM | Cc1ncc(NC(=O)c2ccnc(C(C)(C)C#N)c2)cc1-c1cnc(-c2cn(C)nc2C)c(C#N)c1 [Example 113, N-(5′-cyano-6′-(1,3-dimethyl-1H-pyrazol-4-yl)-2-methyl-[3,3′-bipyridin]-5-yl)-2-(2-cyanopropan-2-yl)isonicotinamide] |
| 8.18 nM | 32.1 nM | Cc1ncc(NC(=O)c2ccnc(C(C)(C)C#N)c2)cc1-c1cnc(-c2c(C)nn(C)c2C)c(C#N)c1 [Example 114, N-(5′-cyano-2-methyl-6′-(1,3,5-trimethyl-1H-pyrazol-4-yl)-[3,3′-bipyridin]-5-yl)-2-(2-cyanopropan-2-yl)isonicotinainide] |
| 11.5 nM | 70.6 nM | Cc1ncc(NC(=O)c2ccnc(C(C)(C)C#N)c2)cc1-c1cnc(-c2ccnnc2)c(C#N)c1 [Example 115] |
| 0.768 nM | 5.57 nM | Cc1ccc(NC(=O)c2cccc(C(F)(F)F)c2)cc1-c1cnc(-n2ccc(=O)cc2)c(C#N)c1 [Example 118, N-(3-(3′-cyano-4-oxo-4H-[1,2′-bipyridin]-5′-yl)-4-methylphenyl)-3-(trifluoromethyl) benzamide] |
| 1.65 nM | 12.2 nM | Cc1ccc(NC(=O)c2ccnc(C(F)(F)F)c2)cc1-c1cnc(-n2ccc(=O)cc2)c(C#N)c1 [Example 119, N-(3-(3′-cyano-4-oxo-4H-[1,2′-bipyridin]-5′-yl)-4-methylphenyl)-2-(trifluoromethyl) isonicotinamide] |
| 6.84 nM | 34.6 nM | Cc1ccc(NC(=O)c2ccnc(C(C)(C)C#N)c2)cc1-c1cnc(-n2ccc(=O)cc2)c(C#N)c1 [Example 120, N-(3-(3′-cyano-4-oxo-4H-[1,2′-bipyridin]-5′-yl)-4-methylphenyl)-2-(2-cyanopropan-2-yl)isonicotinamide] |
| 0.307 nM | 0.871 nM | Cc1ccc(NC(=O)c2ccnc(C(F)(F)F)c2)cc1-c1cnc(C(C)C)c(C#N)c1 [Example 121, N-(3-(5-cyano-6-isopropylpyridin-3-yl)-4-methylphenyl)-2-(trifluoromethyl) isonicotinamide] |
| 0.994 nM | 2.8 nM | Cc1ccc(NC(=O)c2ccnc(C(C)(C)C#N)c2)cc1-c1cnc(C(C)C)c(C#N)c1 [Example 122, N-(3-(5-cyano-6-isopropylpyridin-3-yl)-4-methylphenyl)-2-(2-cyanopropan-2-yl)isonicotinamide] |
| 0.15 nM | 1.18 nM | Cc1ccc(NC(=O)c2cccc(C(F)(F)F)c2)cc1-c1cnc(-c2cnn(C)c2)c(C#N)c1 [Example 123, N-(3-(5-cyano-6-(1-methyl-1H-pyrazol-4-yl)pyridin-3-yl)-4-methylphenyl)-3-(trifluoromethyl) benzamide] |
| 0.0746 nM | 0.427 nM | Cc1ccc(NC(=O)c2ccnc(C(F)(F)F)c2)cc1-c1cnc(-c2cnn(C)c2)c(C#N)c1 [Example 124, N-(3-(5-cyano-6-(1-methyl-1H-pyrazol-4-yl)pyridin-3-yl)-4-methylphenyl)-2-(trifluoromethyl) isonicotinamide] |
| 0.254 nM | 1.46 nM | Cc1ccc(NC(=O)c2ccnc(C(C)(C)C#N)c2)cc1-c1cnc(-c2cnn(C)c2)c(C#N)c1 [Example 125, N-(3-(5-cyano-6-(1-methyl-1H-pyrazol-4-yl)pyridin-3-yl)-4-methylphenyl)-2-(2-cyanopropan-2-yl)isonicotinamide] |
| 0.0423 nM | 0.304 nM | Cc1ccc(NC(=O)c2ccnc(C(F)F)c2)cc1-c1cnc(-c2cnn(C)c2)c(C#N)c1 [Example 126, N-(3-(5-cyano-6-(1-methyl-1H-pyrazol-4-yl)pyridin-3-yl)-4-methylphenyl)-2-(difluoromethyl) isonicotinamide] |
| 0.464 nM | 3.11 nM | Cc1ncc(NC(=O)c2ccnc(C(F)(F)F)c2)cc1-c1cnc(C2CCOCC2)c(C#N)c1 [Example 127, N-(5′-cyano-2-methyl-6′-(tetrahydro-2H-pyran-4-yl)-[3,3′-bipyridin]-5-yl)-2-(trifluoromethyl) isonicotinamide] |
| 0.202 nM | 1.34 nM | Cc1ncc(NC(=O)c2cccc(C(F)(F)F)c2)cc1-c1cnc(C2CCOCC2)c(C#N)c1 [Example 128] |
| 2.55 nM | 23.8 nM | Cc1ncc(NC(=O)c2ccnc(C(F)F)c2)cc1-c1cnc(C2CCOCC2)c(C#N)c1 [Example 129, N-(5′-cyano-2-methyl-6′-(tetrahydro-2H-pyran-4-yl)-[3,3′-bipyridin]-5-yl)-2-(difluoromethyl) isonicotinamide] |
| 0.879 nM | 4.83 nM | Cc1ncc(NC(=O)c2ccnc(C(C)C)c2)cc1-c1cnc(C2CCOCC2)c(C#N)c1 [Example 130, N-(5′-cyano-2-methyl-6′-(tetrahydro-2H-pyran-4-yl)-[3,3′-bipyridin]-5-yl)-2-isopropyl-isonicotinamide] |
| 0.745 nM | 4.26 nM | Cc1ncc(NC(=O)c2ccnc(C3CC3)c2)cc1-c1cnc(C2CCOCC2)c(C#N)c1 [Example 131, N-(5′-cyano-2-methyl-6′-(tetrahydro-2H-pyran-4-yl)-[3,3′-bipyridin]-5-yl)-2-cyclopropyl-isonicotinamide] |
| 0.117 nM | 0.542 nM | Cc1ncc(NC(=O)c2cccc(C(F)F)c2)cc1-c1cnc(N2CCOCC2)c(C#N)c1 [Example 132, N-(5′-cyano-2-methyl-6′-morpholino-[3,3′-bipyridin]-5-yl)-3-(difluoromethyl) benzamide] |
